The CheMixHub drug solubility set

Experiment: xn = mol fraction of the nth substance listed, in the solute-free solvent

c1ccc(-c2ccc(C(c3ccccc3)n3ccnc3)cc2)cc1 (stereo unspecified) + CCCO + O
solubility (g/100 g solution)
Settings	278.15 K	283.15 K	288.15 K	293.15 K	298.15 K	303.15 K	308.15 K	313.15 K	318.15 K
x2 = 0.03225	0.0336	0.0464	0.0633	0.0834	0.101	0.139	0.185	0.229	0.288
x2 = 0.06974	0.0833	0.114	0.154	0.202	0.244	0.332	0.436	0.54	0.674
x2 = 0.1139	0.174	0.22	0.295	0.402	0.547	0.719	0.918	1.13	1.35
x2 = 0.1666	0.308	0.417	0.558	0.724	0.884	1.18	1.52	1.9	2.34
x2 = 0.2307	0.467	0.573	0.784	1.06	1.3	1.74	2.22	2.82	3.53
x2 = 0.3103	0.618	0.836	1.12	1.45	1.81	2.37	3.04	3.83	4.72
x2 = 0.4117	0.601	0.91	1.27	1.77	2.4	3.06	3.87	4.77	5.68
x2 = 0.5454	0.774	1.05	1.42	1.86	2.37	3.09	3.98	5.09	6.3
x2 = 0.7297	0.768	1.11	1.56	2.08	2.68	3.46	4.32	5.36	6.55

CCOc1ccccc1C(N)=O + CO + CC#N
solubility (g/100 g solution)
Settings	x2 = 0.1	x2 = 0.2	x2 = 0.3	x2 = 0.4	x2 = 0.5	x2 = 0.6	x2 = 0.7	x2 = 0.8	x2 = 0.9
293.15 K	3.86	5.1	6.26	7.41	8.25	8.88	8.99	8.83	8.26
298.15 K	4.9	6.33	7.81	9.11	10.1	11	11.1	10.7	10.1
303.15 K	6.47	8.36	10.2	11.5	12.8	13.6	13.7	13.4	12.6
308.15 K	8.43	10.8	12.9	14.4	15.6	16.5	16.4	16.3	15.1
313.15 K	10.8	13.5	16	18.1	19.3	20.4	20.4	19.8	18.5
318.15 K	13.7	16.8	19.7	21.9	23.4	24.4	24.5	24	22.7
323.15 K	17.3	21	24	26.4	28.3	29.2	29.3	28.5	27.1

C#CC1(O)C=CC2C3CCC4=CC(=O)CCC4C3CCC21CC (stereo unspecified) + CO + O
solubility (g/100 g solution)
Settings	x2 = 0.05881	x2 = 0.1233	x2 = 0.1942	x2 = 0.2727	x2 = 0.3599	x2 = 0.4576	x2 = 0.5675	x2 = 0.6923	x2 = 0.835
283.15 K	0.314	0.312	0.374	0.434	0.812	1.22	1.5	3.21	3.44
293.15 K	0.435	0.437	0.512	0.594	1.2	1.81	2.45	4.24	5.12
298.15 K	0.503	0.51	0.598	0.692	1.49	2.18	3.09	4.83	6.09
303.15 K	0.578	0.592	0.696	0.804	1.8	2.59	3.85	5.45	7.24
308.15 K	0.66	0.687	0.811	0.932	2.16	3.06	4.78	6.1	8.54
313.15 K	0.746	0.791	0.943	1.08	2.55	3.6	5.87	6.79	9.97
318.15 K	0.838	0.905	1.09	1.25	2.97	4.2	7.12	7.51	11.7
323.15 K	0.934	1.03	1.27	1.44	3.41	4.87	8.61	8.26	13.5
